Reference: patent US20230037448A1, “FLUORINATED QUINOLINE AND QUINOXALINE DERIVATIVES AS DIHYDROOROTATE DEHYDROGENASE (DHODH) INHIBITORS FOR THE TREATMENT OF CANCER, AUTOIMMUNE AND INFLAMMATORY DISEASES” (Janssen Biotech, Inc., priority 2019, published 2023)

Experiments:
MOLM-13 cells = experiment: MOLM-13 Cellular Assay; assay type: cell-based; conditions: Homo sapiens, MOLM-13, 72 h, 72 hours exposure, cell viability by CellTiter-Glo
Protocol: MOLM-13 cells were obtained from DSMZ and were maintained in RPMI 1640+Glutamax+25 mM HEPES (Invitrogen, catalog number 72400) supplemented with 10% heat inactivated fetal bovine serum (FBS; Invitrogen, catalog number 16140). The day prior to assay set-up, cells were pelleted, resuspended in fresh media, counted, and cells were plated at 0.4×10^6 cell/mL in a T150 flask. On the day of the assay, cells were pelleted, resuspend in fresh media, counted, and seeded at 5,000 cells/well in white opaque 96-well tissue culture treated microplates (Perkin Elmer, catalog number 6005680). Cells were exposed to different concentrations of test compounds at 37° C., 5% CO2 for 72 hours immediately after seeding. Cell viability was acquired on a Perkin Elmer Envision 2104 multilabel reader using the CellTiter-Glo assay (Promega) according to the manufacturer's instructions.

human DHODH = biological target: T1, human DHODH (Homo sapiens, UniProt Q02127); experiment: DHODH Enzymatic Assay; assay type: biochemical; conditions: purified human DHODH; DCIP absorbance, end-point mode
T1 construct: purchased Proteros PR-0044
T1 sequence (Q02127 whole entry): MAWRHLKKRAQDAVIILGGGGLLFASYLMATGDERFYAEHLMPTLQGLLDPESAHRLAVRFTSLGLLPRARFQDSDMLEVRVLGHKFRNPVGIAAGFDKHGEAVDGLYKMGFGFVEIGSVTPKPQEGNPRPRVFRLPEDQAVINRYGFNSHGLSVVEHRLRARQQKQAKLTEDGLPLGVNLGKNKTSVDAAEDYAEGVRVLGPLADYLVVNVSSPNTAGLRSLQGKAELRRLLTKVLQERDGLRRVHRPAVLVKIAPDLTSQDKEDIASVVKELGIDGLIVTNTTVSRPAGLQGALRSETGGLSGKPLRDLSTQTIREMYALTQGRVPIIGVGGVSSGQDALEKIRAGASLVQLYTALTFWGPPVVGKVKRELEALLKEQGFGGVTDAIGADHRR
Protocol: To detect DHODH enzyme activities, dichloroindophenol (DCIP) is added as the final electron acceptor in the assay. DCIP can accept electrons from the reduced coenzyme Q generated in the assay, or from dihydroorotate (DHO) via FMN by binding presumably to the ubiquinone pocket. DCIP solutions are blue, with an intense absorbance around 600 nm, but becomes colorless upon reduction (J. Biol. Chem. (1986) 261, 11386). The assay buffer contained […], pH 7.5, 150 mM NaCl, 0.5 mM EDTA, and 0.1% Triton X-100 in MilliQ water. Substrate consisting of 20 mM DHO, 5 mM CoQ6, and 1 mM DCIP in assay buffer, initiates the reaction. The assay is run in end-point mode by quenching the reaction with the potent DHODH inhibitor brequinar. Absorbance measurements were obtained using the BMG Phera Star plate-reading spectrophotomer. Purified human DHODH was purchased from Proteros (cat. No. PR-0044). Chemicals were purchased from Sigma-Aldrich, Teknova, and Avanti Polar Lipids. Liquid handling was performed using Labcyte Echo and Formulatrix Tempest.

CCn1c(CO)nn(-c2cc3c(C(C)C)cc(-c4cc(OC)ncc4C)nc3cc2F)c1=O [Example 8, 4-Ethyl-1-(7-fluoro-4-isopropyl-2-(2-methoxy-5-methylpyridin-4-yl)quinolin-6-yl)-3-(hydroxymethyl)-1H-1,2,4-triazol-5 (4H)-one]
IC50 (MOLM-13 cells): 9.1 nM | IC50 (human DHODH): 4.8 nM

CCn1c(CO)nn(-c2cc3c(C(C)C)cc(-c4ccnc(O)c4C)nc3cc2F)c1=O [Example 22, 4-Ethyl-1-(7-fluoro-2-(2-hydroxy-3-methylpyridin-4-yl)-4-isopropylquinolin-6-yl)-3-(hydroxymethyl)-1H-1,2,4-triazol-5 (4H)-one]
IC50 (MOLM-13 cells): > 100 nM | IC50 (human DHODH): 3.9 nM

Cc1n[nH]c(Cl)c1-c1cc(C(C)C)c2cc(-c3cn(C)c(CO)n3)c(F)cc2n1 [Example 32, (4-(2-(5-Chloro-3-methyl-1H-pyrazol-4-yl)-7-fluoro-4-isopropylauinolin-6-yl)-1-methyl-1H-imidazol-2-yl)methanol]
IC50 (MOLM-13 cells): 3 nM | IC50 (human DHODH): 1.2 nM

C=C(C)c1cc(-c2ccccc2C)nc2cc(F)c(-n3nc(CO)n(CC)c3=O)cc12 [Example 39, 4-Ethyl-1-(7-fluoro-4-(prop-1-en-2-Yl)-2-(o-tolyl)quinolin-6-yl)-3-(hydroxymethyl)-1H-1,2,4-triazol-5 (4H)-one]
IC50 (MOLM-13 cells): 0.2 nM | IC50 (human DHODH): 0.24 nM

CCn1c(CO)nn(-c2cc3c(C(C)C)cc(C4CCOCC4)nc3cc2F)c1=O [Example 20, 4-Ethyl-1-(7-fluoro-4-isopropyl-2-(tetrahydro-2H-pyran-4-yl)quinolin-6-yl)-3-(hydroxymethyl)-1H-1,2,4-triazol-5 (4H)-ene]
IC50 (MOLM-13 cells): > 100 nM | IC50 (human DHODH): 730 nM

Cc1n[nH]c(C(F)(F)F)c1-c1cc(C(C)C)c2cc(-c3cn(C)c(CO)n3)c(F)cc2n1 [Example 33, (4-(7-Fluoro-4-isopropyl-2-(3-methyl-5-(trifluoromethyl)-1H-pyrazol-4-yl)quinolin-6-yl)-1-methyl-1H-imidazol-2-yl)methanol]
IC50 (MOLM-13 cells): 1 nM | IC50 (human DHODH): 2 nM

CCN(CC)c1cc(C(C)C)c2cc(-n3nc(CO)n(CC)c3=O)c(F)cc2n1 [Example 13, 1-(2-(Diethylamino)-7-fluoro-4-isopropylquinolin-6-yl)-4-ethyl-3-(hydroxymethyl)-1H-1,2,4-triazol-5 (4H)-one]
IC50 (MOLM-13 cells): > 100 nM | IC50 (human DHODH): 270 nM

CCn1c(CO)nn(-c2cc3c(C(C)C)cc(OC4CCC4)nc3cc2F)c1=O [Example 6, 1-(2-Cyclobutoxy-7-fluoro-4-isopropylauinolin-6-yl)-4-ethyl-3-(hydroxymethyl)-1H-1,2,4-triazol-5 (4H)-one]
IC50 (MOLM-13 cells): > 100 nM | IC50 (human DHODH): 1080 nM

CCn1c(CO)nn(-c2cc3c(C(C)C)cc(-n4nc(C)cc4C)nc3cc2F)c1=O [Example 12, 1-(2-(3,5-Dimethyl-1H-pyrazol-1-yl)-7-fluoro-4-isopropylquinolin-6-yl)-4-ethyl-3-(hydroxymethyl)-1H-1,2,4-triazol-5 (4H)-one]
IC50 (MOLM-13 cells): 5 nM | IC50 (human DHODH): 2.3 nM

CCn1c(CO)nn(-c2cc3c(C(C)C)cc(-c4c(C(F)(F)F)n[nH]c4Cl)nc3cc2F)c1=O [Example 27, 1-(2-(5-Chloro-3-(trifluoromethyl)-1H-pyrazol-4-yl)-7-fluoro-4-isopropylquinolin-6-yl)-4-ethyl-3-(hydroxymethyl)-1H-1,2,4-triazol-5 (4H)-one]
IC50 (MOLM-13 cells): 6 nM | IC50 (human DHODH): 0.7 nM

CCn1c(CO)nn(-c2cc3c(C(C)C)cc(-c4c[nH]nc4C(F)(F)F)nc3cc2F)c1=O [Example 23, 4-Ethyl-1-(7-fluoro-4-isopropyl-2-(3-(trifluoromethyl)-pH-pyrazol-4-yl)quinolin-6-yl)-3-(hydroxymethyl)-1H-1,2,4-triazol-5 (4H)-one]
IC50 (MOLM-13 cells): 9 nM | IC50 (human DHODH): 14 nM

CCn1c(CO)nn(-c2cc3c(C(C)C)cc(-c4c(Cl)c(OC)nn4C)nc3cc2F)c1=O [Example 26, 2-(2-(4-Chloro-3-methoxy-1-methyl-1H-pyrazol-5-yl)-7-fluoro-4-isopropylauinolin-6-yl)-4-ethyl-5-(hydroxymethyl)-2,4-dihydro-3H-1,2,4-triazol-3-one]
IC50 (MOLM-13 cells): 7 nM | IC50 (human DHODH): 13 nM
